# Biological target: herpes simplex virus type 2 (HSV-2) thymidine kinase (Human herpesvirus 2, UniProt P89446)
# Experiment: inhibition of herpes simplex virus type 2 (HSV-2) thymidine kinase in vitro (3H-thymidine phosphorylation)
# Type: biochemical
# Settings: thymidine kinase extract; 50 mM Tris-HCl, pH 8; 5 mM MgCl2; 5 mM ATP; 0.3 μM 3H-thymidine; 37° C., 30 minutes; read-out: IC50 (concentration of the test compound which inhibits enzyme activity by 50%)
# Experimental: The assay mixture contains 50 mM Tris-HCl, pH 8, 5 mM magnesium chloride, 5 mM ATP, 0.3 μM ^3 H-thymidine (50 Ci/mmol), suitably diluted thymidine kinase extract and various concentrations of the test compounds in a total volume of 100 μl. Assays are incubated at 37° C. for 30 minutes and the reaction is terminated by immersion in a boiling water bath for 2 minutes. 85 μl aliquots from each assay are then dried on cellulose paper discs and the unphosphorylated ^3 H-thymidine is removed by washing in 4 mM ammonium formate. The radioactivity remaining bound to the discs is then measured by scintillation spectrophotometry. The degree of inhibition at each concentration of the test compound is expressed as a percentage of a control reaction. The IC50 value, namely the concentration of the test compound which inhibits enzyme activity by 50%, is then calculated. The results obtained with representative compounds of formula I are compiled in the following Table: […]
# Sequence of herpes simplex virus type 2 (HSV-2) thymidine kinase (P89446 whole entry): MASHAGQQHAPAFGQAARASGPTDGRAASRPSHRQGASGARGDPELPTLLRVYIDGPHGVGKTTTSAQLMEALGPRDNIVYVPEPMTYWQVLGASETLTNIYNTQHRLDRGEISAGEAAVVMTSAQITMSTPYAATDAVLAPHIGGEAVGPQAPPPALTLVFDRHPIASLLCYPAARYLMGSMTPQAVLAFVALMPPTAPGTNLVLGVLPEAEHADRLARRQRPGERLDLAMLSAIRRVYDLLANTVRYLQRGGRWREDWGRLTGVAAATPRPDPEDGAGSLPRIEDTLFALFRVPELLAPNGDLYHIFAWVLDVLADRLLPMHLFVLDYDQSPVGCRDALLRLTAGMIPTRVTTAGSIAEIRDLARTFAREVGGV
row,SMILES,IC50
1,"CCc1cn([C@H]2C[C@H](O)[C@@H](CCC(=O)Cc3c(Cl)cccc3Cl)O2)c(=O)[nH]c1=O [Example 3, 5'-[3-(2,6-dichlorophenyl)-2-oxopropyl]-2',5'-dideoxy-5-ethyluridine]",2.4 nM
2,"CCc1cn([C@H]2C[C@H](O)[C@@H](CSCc3c(Cl)cccc3Cl)O2)c(=O)[nH]c1=O [Example 14c, 5'-(2,6-dichlorobenzylthio)-2',5'-dideoxy-5-ethyluridine]",72 nM
3,"CCc1cn([C@H]2C[C@H](O)[C@@H](CCC(O)Cc3c(Cl)cccc3Cl)O2)c(=O)[nH]c1=O (mixture of isomers) [Example 5, 5'-[3-(2,6-dichlorophenyl)-2(RS)-hydroxypropyl]-2',5'-dideoxy-5-ethyluridine]",16 nM

# Now from value to compound:
row,IC50,SMILES
1,600 nM,"CCc1cn([C@H]2C[C@H](O)[C@@H](CS(=O)(=O)Cc3ccccc3)O2)c(=O)[nH]c1=O [Example 9, 5'-benzylsulphonyl-2',5'-dideoxy-5-ethyluridine]"
2,170 nM,"CCc1cn([C@H]2C[C@H](O)[C@@H](CCCCc3ccccc3)O2)c(=O)[nH]c1=O [Example 7, 2',5'-dideoxy-5-ethyl-5'-(3-phenylpropyl)uridine]"
